Counter-ions that a name gives are not always drawn.
Experiments:
[1] = system: OGA in HEK293 cells inducible for P301L mutant human Tau (isoform 2N4R); assay: OGA cellular assay: immunocytochemical detection of O-GlcNAcylated proteins (CTD110.6 antibody) after 6 h incubation; assay type: cell-based; settings: for Emax / EC50: Homo sapiens, HEK293, 6 h; for Emax / Cellular Emax (%): maximum = Thiamet G 200 uM; for EC50: read-out: Cellular hOGA, pEC50 (converted)
Method in brief: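 Low-glucose medium, 6 h compound exposure at 0.2% DMSO; cells PFA-fixed and O-GlcNAc ICC signal imaged at 488 nm (9 fields/well), Hoechst nuclei counted for toxicity. Thiamet G 200 uM on each plate as maximum; IC50 from non-linear regression.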

[2] = molecular target: T1, recombinant human Meningioma Expressed Antigen 5 (MGEA5), also referred to as O-GlcNAcase (OGA) (Homo sapiens, UniProt O60502); assay: OGA biochemical assay: inhibition of FM-GlcNAc hydrolysis, fluorescence; protocol A (10 nM OGA, 1 h) or protocol B (2 nM OGA, 6 h); settings: Enzymatic protocol B (2 nM OGA, 6 h); for IC50: read-out: Enzymatic hOGA, pIC50 (converted)
T1 construct: Full length OGA enzyme was purchased at OriGene (cat # TP322411); purchased OriGene TP322411
T1 sequence (O60502 1-916): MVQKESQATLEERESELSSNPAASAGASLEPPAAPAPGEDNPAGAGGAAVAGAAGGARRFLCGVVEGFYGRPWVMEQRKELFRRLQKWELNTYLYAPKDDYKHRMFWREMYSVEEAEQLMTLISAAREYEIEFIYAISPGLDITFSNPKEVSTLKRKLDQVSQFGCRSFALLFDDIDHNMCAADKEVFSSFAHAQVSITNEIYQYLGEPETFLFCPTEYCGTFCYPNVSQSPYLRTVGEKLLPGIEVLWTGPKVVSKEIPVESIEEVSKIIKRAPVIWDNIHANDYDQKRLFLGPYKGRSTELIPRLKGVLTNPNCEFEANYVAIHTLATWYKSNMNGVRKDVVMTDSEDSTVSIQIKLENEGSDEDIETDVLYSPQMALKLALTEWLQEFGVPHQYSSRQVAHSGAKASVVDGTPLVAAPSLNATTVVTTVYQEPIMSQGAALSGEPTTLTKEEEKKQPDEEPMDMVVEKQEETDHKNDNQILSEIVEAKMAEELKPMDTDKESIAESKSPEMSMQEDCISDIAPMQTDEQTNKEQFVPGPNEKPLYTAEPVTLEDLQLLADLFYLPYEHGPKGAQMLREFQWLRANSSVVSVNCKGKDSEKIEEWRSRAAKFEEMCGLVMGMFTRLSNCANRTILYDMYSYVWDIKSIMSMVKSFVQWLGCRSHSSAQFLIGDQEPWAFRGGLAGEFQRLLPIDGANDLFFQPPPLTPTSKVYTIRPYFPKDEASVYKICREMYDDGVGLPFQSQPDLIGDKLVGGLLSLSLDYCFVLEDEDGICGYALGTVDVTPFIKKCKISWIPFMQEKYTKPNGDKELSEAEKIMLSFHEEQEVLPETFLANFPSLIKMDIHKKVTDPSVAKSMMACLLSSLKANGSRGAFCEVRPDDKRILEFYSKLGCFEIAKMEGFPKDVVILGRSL
Method in brief: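 Full-length human OGA in 200 mM citrate/phosphate pH 7.2 with 0.005% Tween-20, compound pre-incubated 60 min at RT, then 100 uM FM-GlcNAc (final); 10 nM enzyme for 1 h or 2 nM for 6 h at RT. Stopped with pH 11.0 carbonate; fluorescein read at ex 485/em 538 nm. IC50 and Hill coefficient from curve fit.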

Row | melting point [°C] | Emax [2] [%] | IC50 [2] [nM] | Enzymatic Emax (%) [2] [%] | Enzymatic hOGA; pIC50 [2] | Compound | Emax [1] [%] | EC50 [1] [nM] | Cellular hOGA; pEC50 [1] | Cellular Emax (%) [1] [%]
1 | 270.1 |  |  |  |  | Cc1cc(CC2CCCN(C(C)c3ccc4sc(C)nc4c3)C2)cc(C)n1 (single isomer, unassigned) (as salt: HCl) [compound 118] |  |  |  | 
2 | 118.26 |  |  |  |  | CC(=O)Nc1ncc(CN2CCC(OCc3cc(C)nc(C)c3)C2)s1 (racemic) [Product 81] |  |  |  | 
3 | 118.3 | 103 | 33.1 |  |  | CC(=O)Nc1ncc(CN2CCC(Cc3cncc(C)n3)C2)s1 (stereo not drawn) [compound 108] | 78.9 | 155 |  | 
4 | 147.16 |  |  |  |  | CC(=O)Nc1ncc(CN2CCC(Cc3cncnc3C)C2)s1 (racemic) [Product 103] |  |  |  | 
5 | 140.36 |  |  |  |  | CC(=O)Nc1ncc(CN2CCC(Cc3cc(F)ncc3C)C2)s1 (stereo not drawn) [Product 106] |  |  |  | 
6 | 150.08 | 99.2 | 60.3 |  |  | CC(=O)Nc1ncc(CN2CCC(Cc3ncccc3F)C2)s1 (stereo not drawn) [compound 39] |  |  |  | 
7 | 107.53 | 99.7 | 19.5 |  |  | CC(=O)Nc1ncc(CN2CCC(Cc3ccc(C)c(C)n3)C2)s1 (stereo not drawn) [compound 38] | 90.3 | 39.8 |  | 
8 | 129.25 | 102 | 9.12 |  |  | CC(=O)Nc1ncc(CN2CCC(Cc3nccc(C)c3F)C2)s1 (stereo not drawn) [compound 43] | 87 | 79.4 |  | 
9 | 256.05 |  |  |  |  | Cc1cc(CC2CCCN(C(C)c3ccc4c(c3)OCCO4)C2)cc(C)n1 (racemic) (as salt: HCl) [compound 142] |  |  |  | 
10 |  |  |  | 102.6 | 8.30 | CC(=O)Nc1ncc(CN2CC[C@H](Cc3ccc(C)nc3C#N)C2)s1 [compound 84] |  |  | 7.43 | 81.9
11 |  | 99.6 | 8.51 |  |  | CCOc1cc(C[C@H]2CCN(Cc3cnc(NC(C)=O)s3)C2)cc(C)n1 [compound 41] | 90.7 | 20.9 |  | 
12 |  | 101 | 126 |  |  | Cc1cc(C[C@H]2CCCN(Cc3ccc4sc(C)nc4c3)C2)cc(C)n1 [compound 145] | 39.4 | > 1000 |  | 
13 |  | 100 | 1.38 |  |  | COc1nc(C)ccc1C[C@H]1CCCN(Cc2cnc(NC(C)=O)s2)C1 [compound 126] | 97.5 | 11.5 |  | 
14 |  | 103 | 18.6 |  |  | COc1nc(C)ccc1CC1CCN(Cc2cnc(NC(C)=O)s2)C1 (stereo not drawn) [compound 109] | 115 | 52.5 |  | 
15 |  | 102 | 1.82 |  |  | CC(=O)Nc1ncc(CN2CCC[C@H](Cc3nc(C)cnc3C)C2)s1 [compound 128] | 93.2 | 39.8 |  | 
16 |  | 99.5 | 26.9 |  |  | CC(=O)Nc1ncc(CN2CCC[C@@H](Cc3cc(C)nc(C)n3)C2)s1 (single isomer, unassigned) [compound 26] | 72.3 | 525 |  | 
17 |  | 102 | 8.51 |  |  | CC(=O)Nc1ncc(CN2CCC[C@@H](Oc3cc(C)nc(C)c3)C2)s1 [compound 15] | 98.4 | 1230 |  | 
18 |  | 101 | 21.4 |  |  | CC(=O)Nc1ncc(CN2CCC(Cc3cc(F)ncc3C)C2)s1 (stereo not drawn) [compound 106] | 86.9 | 41.7 |  | 
19 |  | 102 | 4.9 |  |  | Cc1cc(CC2CCCN(C(C)c3ccc4c(c3)OCCO4)C2)cc(C)n1 (racemic) [compound 142] | 100 | 60.3 |  | 
20 |  | 100 | 95.5 |  |  | CC(=O)Nc1ncc([C@@H](C)N2CCC[C@H](COc3cc(C)nc(C)c3)C2)s1 (single isomer, unassigned) [compound 136] | 70.6 | 479 |  | 

Row | melting point [°C] | Emax [2] [%] | IC50 [2] [nM] | Enzymatic Emax (%) [2] [%] | Enzymatic hOGA; pIC50 [2] | Compound | Emax [1] [%] | EC50 [1] [nM] | Cellular hOGA; pEC50 [1] | Cellular Emax (%) [1] [%]
21 |  | 103 | 15.1 |  |  | CC(=O)Nc1ncc(CN2CCC[C@@H](COc3cc(C)nc(C)c3)C2)s1 [compound 154] | 116 | 38 |  | 
22 |  | 103 | 3.72 |  |  | CC(=O)Nc1ncc(CN2CCC[C@H](Nc3cc(C)nc(C)c3)C2)s1 [compound 9] | 102 | 47.9 |  | 
23 |  |  |  | 101.8 | 7.91 | CC(=O)Nc1ncc(CN2CCC(Cc3cc(C)nc(C)n3)C2)s1 (stereo not drawn) [compound 77] |  |  | 7.27 | 91.1
24 |  | 98.3 | 4.27 |  |  | CC(=O)Nc1ncc(CN2CCC[C@H](Cc3ncc(F)cc3F)C2)s1 [compound 121] | 110 | 28.8 |  | 
25 |  | 102 | 6.31 |  |  | Cc1cc(CC2CCCN(C(C)c3ccc4scnc4c3)C2)cc(C)n1 (racemic) [compound 148] | 105 | 56.2 |  | 
26 |  | 101 | 3.16 |  |  | CC(=O)Nc1ncc(CN2CC[C@H](Cc3ncc(C)nc3C)C2)s1 [compound 58] | 90.6 | 40.7 |  | 
27 |  | 100 | 28.2 |  |  | CC(=O)Nc1ncc(C(C)N2CCCC(COc3cc(C)nc(C)c3)C2)s1 (single isomer, unassigned) [compound 134] | 79.5 | 52.5 |  | 
28 |  | 100 | 2.51 |  |  | CC(=O)Nc1ncc(CN2CCC[C@H](Cc3cc(F)ncc3C)C2)s1 [compound 122] | 97.2 | 4.17 |  | 
29 |  | 99.9 | 72.4 |  |  | CC(=O)Nc1ncc(S(=O)(=O)N2CCC[C@H](Cc3cc(C)nc(C)c3)C2)s1 [compound 33] | 33.8 | > 1000 |  | 
30 |  |  | 2.88 | 103.7 |  | Cc1cc(CC2CCCN(C(C)c3ccc4sc(C)nc4c3)C2)cc(C)n1 (single isomer, unassigned) [compound 119] |  |  | 7.38 | 107.3
31 |  | 100 | 14.8 |  |  | CC(=O)Nc1ncc(CN2CC[C@H](Cc3cc(C)c(F)cn3)C2)s1 [compound 52] | 95.4 | 91.2 |  | 
32 |  | 99.4 | 77.6 |  |  | CC(=O)Nc1ncc(CN2CC[C@H](Cc3ccc(C(F)F)cn3)C2)s1 [compound 50] | 87.4 | 55 |  | 
33 |  | 98.7 | 93.3 |  |  | CC(=O)Nc1ncc(CN2CCCC(Oc3cc(C)cc(C)c3)C2)s1 (stereo not drawn) [compound 13, reference compound] | 92.1 | 316 |  | 
34 |  |  |  | 101.3 | 8.49 | CC(=O)Nc1ncc(CN2CCC(Cc3cnc(C)c(C)n3)C2)s1 (stereo not drawn) [compound 86] |  |  | 7.4 | 83.5
35 | 125.9 |  |  |  |  | CC(=O)Nc1ncc(CN2CCC(COc3cc(C)nc(C)c3)C2)s1 (racemic) [Product 89] |  |  |  | 
36 |  |  |  | 101.4 | 7.81 | CC(=O)Nc1ncc(CN2CC[C@H](Cc3cc(C)ncc3C(F)(F)F)C2)s1 [compound 73] |  |  | 6.95 | 94
37 |  | 104 | 178 |  |  | CC(=O)Nc1ncc([C@@H](C)N2CCC[C@@H](COc3cc(C)nc(C)c3)C2)s1 (single isomer, unassigned) [compound 135] |  |  | 6.3 | 67.9
38 |  | 101 | 22.9 |  |  | CC(=O)Nc1ncc(CN2CC[C@H](Cc3ccnc(F)c3)C2)s1 [compound 56] | 90.3 | 64.6 |  | 
39 |  | 101 | 70.8 |  |  | CC(=O)Nc1ncc(CN2CCC[C@H](Oc3cc(C)nc(C)c3)C2)s1 [compound 16] | 115 | 63.1 |  | 
40 |  | 101 | 1.82 |  |  | CC(=O)Nc1ncc(CN2CCC[C@H](Cc3cc(C)nc(C)n3)C2)s1 (single isomer, unassigned) [compound 25] | 97.8 | 9.77 |  | 
